Assay results: article PMC10254852, “Design, Synthesis and Anticancer Evaluation of Nitroimidazole Radiosensitisers” (Molecules, 2023)
In brackets after ≈: the same amount, converted by molar mass. Where two headings read alike, the source gives them in different places.

Tests used:
[1] = Solubility in αMEM culture medium (HPLC of saturated solutions); assay type: physicochemical; settings: αMEM culture medium with 5% foetal calf serum and 1% DMSO, plasma or biological fluid, kinetic from dmso stock, α-MEM culture medium containing 5% foetal calf serum, 37 °C
[2] = test system: HCT116/54C cells; assay: In vitro cytotoxicity, 4 h exposure oxic/anoxic, 5-day regrowth, sulforhodamine B; assay type: cell-based, human; settings: HCT116/54C; for HCR: IC50(oxic)/IC50(anoxic); for IC50: Homo sapiens
Description: (§1) This allowed derivation of hypoxia cytotoxicity ratios (HCR) as IC50(oxic)/IC50(anoxic) in an HCT116 subclone HCT116/54C and two HNSCC cell lines, FaDu and UT-SCC-74B (Table 2).
(§2) HCT116/54C is an HCT116 subline that originated from a mixed culture with UT-SCC-54C cells, which was supplied alongside UT-SCC-74B by Prof. Bradly Wouters (University Health Network, Toronto, ON, Canada). HCT116/54C and UT-SCC-74B cells were passaged in minimum essential media (MEM, ThermoFisher Scientific, Waltham, MA, USA) with 10% foetal calf serum (FCS, Moregate Biotech, Hamilton, New Zealand), 4.5 mg/mL D-glucose (Sigma-Aldrich, St. Louis, MO, USA) and 20 mM HEPES (Sigma-Aldrich). FaDu cells were sourced from American Type Culture Collection and cultured in αMEM (ThermoFisher Scientific) with 10% FCS. All cell lines were confirmed mycoplasma-free by PlasmoTest (InvivoGen, San Diego, CA, USA) and were derived from STR-authenticated cryopreserved stocks. Log-phase cells were seeded into 96-well plates at 800 cells/well for HCT116/54C and 1500 cells/well for FaDu. […] After drug washout, cells were grown and stained as for the oxic IC50 assays. The hypoxic cytotoxicity ratio HCR was determined as HCR = IC50(oxic)/IC50(anoxic).

[3] = test system: FaDu cells; assay: as above; assay type: cell-based; settings: for IC50: Homo sapiens; for HCR: IC50(oxic)/IC50(anoxic)
Description: as §1, §2

[4] = Stability in αMEM culture medium (HPLC after 24 h); assay type: physicochemical; settings: after 24 h incubation at 37 °C
Protocol: The stability of the same solutions after 24 h incubation at 37 °C was measured by HPLC analysis.

[5] = parameters: method as in PMID 29253343; settings: NIH-III mice, 2.2 mmol/kg i.v., cited from earlier work; for Cmax: read-out: Plasma Cmax
[6] = test system: UT-SCC-74B tumours; assay: Tumour radiosensitisation: ex vivo clonogenic assay; assay type: in vivo, NIH-III mice; settings: for Sensitisation Ratio: 2.2 mmol/kg i.v. 5 min prior to 10 Gy radiation, surviving fraction after radiation/surviving fraction after drug + radiation; for enhancement of tumour cell killing by radiotherapy (RAD vs drug + RAD): 2.2 mmol/kg i.v. + 10 Gy, one-way ANOVA
Protocol: (§3) Specific pathogen-free six- to eight-week-old female NIH-III mice, bred in the Vernon Jansen Unit, University of Auckland, were used for animal experiments. Animals had ad libitum access to food and water and were maintained in microisolator cages on a 12 h light/dark cycle. All treatments were administered by i.v. injection at a dose of 2.2 mmol/kg and injection volume of 10 mL/kg. Compounds 2, 34 and 38 were administered as solutions in saline containing 1% DMSO or for 9–12 as solutions in saline containing 2 molar equivalents of NaHCO3. Control animals received an i.v. injection of saline at 10 mL/kg. All animal experiments were conducted under the auspices of the University of Auckland Animal Ethics Committee (approval 1781).
(§4) Compounds were evaluated for in vivo radiosensitisation of hypoxic cells in HCT116/54C and UT-SCC-74B human tumour xenografts using clonogenic survival as an endpoint, using previously report methods. Tumours were grown subcutaneously on the flanks of NIH-III mice by injecting 5 × 10^6 HCT116/54C cells or UT-SCC-74B cells. Once tumours reached a volume of approximately 250 mm^3, mice were randomly assigned to 4 treatment groups and treated with: (A) vehicle control, (B) 10 Gy RAD only, (C) sensitiser only, or (D) sensitiser given before 10 Gy RAD. Drugs were administered as a single i.v. dose at 2.2 mmol/kg. […] Tumours were excised 18 h after treatment, and tumour cells were dissociated enzymatically and plated to determine the number of surviving (clonogenic) cells per gram of tumour tissue. SF and SR were calculated as described above. Statistical significance of drug effects was tested using one-way ANOVA with Sidak tests for multiple comparisons vs. radiation alone (Table 5).

[7] = test system: HCT116/54C tumours; assay: as above; assay type: in vivo, NIH-III mice; settings: for Sensitisation Ratio: 2.2 mmol/kg i.v. 5 min prior to 10 Gy radiation, surviving fraction after radiation/surviving fraction after drug + radiation; for enhancement of tumour killing of radiotherapy (RAD vs drug + RAD): 2.2 mmol/kg i.v. + 10 Gy, one-way ANOVA
Protocol: as §3, §4

[8] = test system: HCT116/54C tumour xenografts; assay: Tumour growth inhibition in combination with radiation; assay type: in vivo, NIH-III mice; settings: HCT116/54C tumours, fractionated radiation, p < 0.05
Protocol: as §3
Compounds were evaluated for their ability to inhibit tumour growth in combination with a single dose of radiation (10 Gy) in HCT116/54C or UT-SCC-74B tumour xenografts on the backs of NIH-III mice. In addition, a fractionated radiation schedule (5 Gy on Days 1, 7 and 14) was explored in HCT116/54C tumour xenografts. Mice were randomly assigned to 4 treatment groups and treated with: (A) vehicle control, (B) 10 Gy RAD only, (C) sensitiser only, or (D) sensitiser given 10 min before 10 Gy RAD. Drugs were administered by i.v. injection at 2.2 mmol/kg either as a single dose or three doses on Days 1, 7 and 14 in the fractionated study. Treatment commenced when the average tumour size reached approximately 250 mm^3, and tumour size was measured until study endpoint. Mice were placed in a custom-built lead-shielded jig that allowed irradiation of the whole tumour but shielded the mouse from radiation. Survival analysis represented the time taken for tumours to increase in relative tumour volume by 4× from the start of treatment (RTV^4). The significance of differences in activity between the groups was assessed by log-rank with Holm–Sidak multiple comparison analysis.

[9] = test system: HCT116/54C cells; assay: In vitro radiosensitisation under anoxia, clonogenic survival; assay type: cell-based, human; settings: compound 1 mM, radiation dose for 1% survival/radiation dose for 1% survival with compound, mean ± SEM
Protocol: Next, we evaluated in vitro radiosensitisation by using a representative subset of nitroimidazole compounds in HCT116/54C cells with a clonogenic survival endpoint. Radiosensitisation was determined by treating cells under anoxia with a range of radiation doses alone and with compounds at equimolar doses (1 mM). Sensitiser enhancement ratios (SER) were calculated as the ratio of radiation dose required for 1% clonogenic survival alone or with compound (Table 3).
Cells were seeded onto 96-well plates at 10^5 cells per well and allowed to attach for 2 h. […] The plates were irradiated (Eldorado 78 ^60Co teletherapy unit, ~2 Gy/min) with 15 Gy under anoxia at room temperature for SR experiments. A metal wedge placed on the top of the metal chamber was used to achieve a graduated radiation dose across the plate, varying from 7 to 29 Gy, calibrated by Fricke dosimetry with ammonium thiocyanate as previously described for SER experiments. The control plate (compound alone, no radiation) was left inside the anaerobic chamber at room temperature during the irradiation period. After treatment, the cells were trypsinized and suspended in usual media + 1% penicillin-streptomycin (ThermoFisher Scientific), and 10-fold serial dilutions were plated for clonogenic survival. After 10 days, plates were stained with methylene blue (2 g/L in EtOH/H2O, 1:1 v/v) and colonies with more than 50 cells were counted. The surviving fraction (SF) was determined as: SF = PE(irradiated)/PE(control) where the plating efficiency (PE) = (No. of colonies)/(No. of cells plated). SF was plotted against radiation dose. Survival ratios (SR) were calculated: SR = (cell survival with radiation)/(cell survival with drug + radiation). Sensitizer enhancement ratios (SER) were calculated: SER = (radiation dose for 1% survival without compound)/(radiation dose for 1% survival with compound).

[10] = test system: UT-SCC-74B cells; assay: In vitro cytotoxicity, 4 h exposure oxic/anoxic, 5-day regrowth, sulforhodamine B; assay type: cell-based, human; settings: for IC50: Homo sapiens; for HCR: IC50(oxic)/IC50(anoxic)
Description: as §1, §2

[11] = anoxic, 4 h exposure, mean ± SEM, n = 3–4, read-out: IC50 Anoxic
[12] = oxic, 4 h exposure, mean ± SEM, n = 3–4, read-out: IC50 Oxic
[13] = drug alone 2.2 mmol/kg i.v., relative to untreated tumours

Row | Compound | HCR [2] | IC50 [2, 11] [mM] | IC50 [2, 12] [mM] | IC50 [3, 11] [mM] | IC50 [3, 12] [mM] | HCR [3] | AUC [5] [µM·h] | T1/2 [5] [h] | Cmax [5] [µM] | Sensitisation Ratio [7] | enhancement of tumour killing of radiotherapy (RAD vs drug + RAD) [7] | SER at 1 mM [9] | further results
1 | O=[N+]([O-])c1nccn1CCS(=O)(=O)NCC(O)CO (stereo not drawn) [Compound 15, N-(2,3-Dihydroxypropyl)-2-(2-nitro-1H-imidazol-1-yl)ethane-1-sulfonamide] | >1.9 | 12.8 ± 4.4 | > 25 | 7.3 ± 0.9 | > 25 | >3.4 |  |  |  |  |  |  | solubility [1]: 84.3 mM (≈ 24.8 mg/mL); melting point: 120 to 123 °C; % Stability in αMEM [4]: 99.9%
2 | O=[N+]([O-])c1nccn1CS(=O)(=O)NCCOP(=O)(O)O [Compound 9] |  |  |  |  |  |  | 550 | 2.33 | 920 | 6.22 | significantly enhanced the tumour killing of radiotherapy |  | Sensitisation Ratio [6]: 9.64; enhancement of tumour cell killing by radiotherapy (RAD vs drug + RAD) [6]: significantly enhanced tumour cell killing by radiotherapy; single agent cell kill [7, 13]: 65.7 ± 8.2%
3 | O=[N+]([O-])c1nccn1CCS(=O)(=O)NCCOP(=O)(O)O [Compound 10] |  |  |  |  |  |  | 640 | 2.21 | 1140 | 1.78 | not |  | 
4 | O=C(Cn1ccnc1[N+](=O)[O-])NCCO [Compound 2, etanidazole, reference compound] | >14.8 | 1.7 ± 0.2 | > 25 | 1.5 ± 0.3 | > 20 | >13.3 | 1820 | 1.05 | 3640 | 3.34 | significantly enhanced the tumour killing of radiotherapy | 1.18 ± 0.00 | survival (time to RTV^4) vs radiation alone [8]: significantly increased survival compared to radiation alone; Sensitisation Ratio [6]: 8.94; enhancement of tumour cell killing by radiotherapy (RAD vs drug + RAD) [6]: significantly enhanced tumour cell killing by radiotherapy; single agent cell kill [6, 13]: 55.9 ± 1.1%
5 | O=[N+]([O-])c1cncn1CCS(=O)(=O)NCCN1CCOCC1 [Compound 16, N-(2-Morpholinoethyl)-2-(5-nitro-1H-imidazol-1-yl)ethane-1-sulfonamide] | 1.0 | 12.9 ± 0.9 | 12.8 ± 1.5 | 6.1 ± 0.8 | > 16 | >2.6 |  |  |  |  |  | 1.31 ± 0.01 | solubility [1]: 83 mM (≈ 27.7 mg/mL); IC50 [10, 11]: 10.3 ± 2.6 mM; IC50 [10, 12]: 14.1 ± 2.1 mM; HCR [10]: 1.4; % Stability in αMEM [4]: 99.9%
6 | O=[N+]([O-])c1cncn1CS(=O)(=O)NCCOP(=O)(O)O [Compound 11] |  |  |  |  |  |  | 710 | 1.72 | 1100 | 1.85 | not |  | 
7 | COCC(O)Cn1ccnc1[N+](=O)[O-] (stereo not drawn) [Compound 1, misonidazole, reference compound] | >16.8 |  |  |  |  | >15.4 |  |  |  |  |  | 1.46 ± 0.01 | IC50 ([10]; 4 h, read-out: IC50 Anoxic): 2.1 ± 0.6 mM; IC50 ([10]; 4 h, read-out: IC50 Oxic): > 25 mM; HCR [10]: >11.9; IC50 ([2]; 4 h, read-out: IC50 Anoxic): 1.5 ± 0.3 mM; IC50 ([2]; 4 h, read-out: IC50 Oxic): > 25 mM; IC50 ([2]; read-out: hypoxic IC50): 0.5 mM; IC50 ([3]; 4 h, read-out: IC50 Anoxic): 1.3 ± 0.2 mM; IC50 ([3]; 4 h, read-out: IC50 Oxic): > 20 mM
